# Source: patent US8211877B2, “Compounds, compositions and methods for preventing neurodegeneration in acute and chronic injuries in the central nervous system” (Neurotech Pharmaceuticals Co., Ltd., priority 2000, dated 2012)
# Columns and labels:
# [1] = Anti-oxidant effect: decrease in DPPH absorption at 517 nm; type: biochemical; settings: for A517 nm (DPPH): 100 uM DPPH in ethanol, 30 min, mean±SEM
# Method: To examine anti-oxidant effect, DPPH (2,2-diphenyl-1-picryl-hydrazyl radical), a stable free radical, was dissolved in ethanol to make a 100μ M solution. A compound was reacted with DPPH or ethanol. After incubation for 30 min, relative decrease in DPPH absorption at 517 nm was measured by a spectrophotometer.
# AS or trolox was reacted with 100 uM DPPH dissolved in ethanol for 30 min. Anti-oxidant property was analyzed by measuring changes in the level of DPPH at 517 nm, mean±SEM (n=3 test tubes per condition), after subtracting background value resulting from ethanol alone.
# Anti-oxidant property was analyzed by measuring changes in DPPH at 517 nm, mean±SEM (n=3 test tubes per condition), after subtracting background value resulting from ethanol alone.
# NBAS was reacted with 100 uM DPPH dissolved in ethanol for 30 min. Anti-oxidant property was analyzed by measuring changes in DPPH at 517 nm, mean±SEM (n=3 test tubes per condition), after subtracting background value resulting from ethanol alone.
# PBAS was reacted with 100 uM DPPH dissolved in ethanol for 30 min. Anti-oxidant property was analyzed by measuring changes in DPPH at 517 nm, mean±SEM (n=3 test tubes per condition), after subtracting background value resulting from ethanol alone.
# NBAS derivatives (100μ M for each) were reacted with 100 μM DPPH dissolved in ethanol for 30 min. Anti-oxidant property was analyzed by measuring changes in DPPH at 517 nm, meant SEM (n=3 test tubes per condition), after subtracting background value resulting from ethanol alone.
# [2] = system: Mouse cortical cell cultures; assay: NMDA-induced neuronal death in cortical cell cultures (LDH release); type: cell-based; settings: 300 μM NMDA 10 min
# Method: (§1) Primary cortical cell cultures from embryonic mice were prepared and used to examine neuroprotective action of compounds. Mouse cortical cell culture system has been extensively used to study mechanisms and pharmacological intervention of neuronal death in neurological diseases. In brief, mouse cerebral cortices were removed from brains of the 15 day-old-fetal mice, in accordance with a protocol approved by our institutional animal care committee. The neocortices were gently triturated and plated on 24 well plates (5 hemispheres/plate) precoated with 100 μg/ml poly-D-lysine and 4 μg/ml laminin. Plating media consist of Eagles minimal essential media (MEM, Earles salts, supplied glutamine-free) supplemented with 5% horse serum, 5% fetal bovine serum, 2 mM glutamine, and 21 mM glucose. Cultures were maintained at 37° C. in a humidified 5% CO2 atmosphere. After 7 days in vitro (DIV 7), cultures were shifted into a growth medium identical to the plating medium but lacking fetal serum. At DIV 7-9, 10 mM cytosine arabinofuranoside was included to halt overgrowth of glia. Mixed cultures of neurons and glia were then fed twice a week.
# (§2) The percent neuronal death was normalized to the mean LDH value released 24 hr after continuous exposure 500 μM NMDA (=100) or a sham control (=0).
# (§3) The neuroprotective action of 5-amino salicylic acid (AS) was examined in primary cortical cell cultures. Mouse cortical cell cultures (DIV 12-14) were exposed to 300μ M NMDA for 10 min (1a), continuously to 50μ M Fe^2+ (1b), or 300μ M Zn^2+ for 30 min (1c), alone or with inclusion of 10-300μ M 5-amino salicylic acid (AS). Neuronal death was analyzed 24 hr later by measuring levels of LDH released into the bathing medium, mean±SEM (n=9-12 (1a), n=4-8 (1b) or n=4 (1c) culture wells per condition), scaled to mean LDH efflux value 24 hr after sham wash (=0) and continuous exposure to 500μ M NMDA (=100).
# (§4) Neuronal death was analyzed 24 hr later by measuring levels of LDH released into the medium, meant SEM (n=7-8 (2a), n=3-6 (2b), n=4 (2c), or n=4 (2d) culture wells per condition). FIG. 2. indicates significant difference from relevant control, at p<0.05 using ANOVA and Student-Neuman-Keuls test.
# (§5) 5-(pentafluorobenzyl)amino salicylic acid (PBAS) was synthesized and tested against neuronal injuries. Mouse cortical cell cultures (DIV 12-14) were exposed to 300μ M NMDA for 10 min (8a), continuously to 50μ M Fe^2+ (8b) or 10 mM BSO (8c), or 300μ M Zn^2+ for 30 min (8d), alone or with inclusion of indicated doses of 5-(pentafluorobenzyl)amino salicylic acid (PBAS). Neuronal death was analyzed 24 hr later by measuring levels of LDH released into the medium, mean t SEM (n=11-16 (8a), n=3-6 (8b), n=4-11 (8c), or n=12 (8d) culture wells per condition).
# (§6) Mouse cortical cell cultures (DIV 12-14) were exposed to 300μ M NMDA for 10 min (11a) or continuously to 50μ M Fe^2− (11b), alone or with inclusion of indicated doses of 5-(4-nitrobenzyl)-N-acetylamino-2-acetoxy ethylbenzoate (NNAAE). Neuronal death was analyzed 24 hr later by measuring levels of LDH released into the medium, mean±SEM (n=10-12 (11a), n=7-8 (11b), or n=4 (11c) culture wells per condition).
# (§7) Mouse cortical cell cultures (DIV 12-14) were exposed to 300μ M NMDA for 10 min (15a) or continuously to 50μ M Fe^2− (15b), alone or with inclusion of indicated doses of 5-[3-(4-nitrophenyl)-n-propyl]aminosalicylic acid (NPPAA). Neuronal death was analyzed 24 hr later by measuring levels of LDH released into the medium, mean±SEM (n=4 (15a) or n=3-8 (15b) culture wells per condition).
# [3] = system: Mouse cortical cell cultures; assay: Fe2+-induced free radical neurotoxicity in cortical cell cultures (LDH release); type: cell-based; settings: for Protection against free radical neurotoxicity compared with parent compound: comparison with BAS or NBAS
# Method: as §1, §2, §3, §4, §5, §6, §7
# [4] = system: Mouse cortical cell cultures; assay: BSO-induced free radical neurotoxicity in cortical cell cultures (LDH release); type: cell-based; settings: 10 mM BSO continuously; compound 1 μM
# Method: as §1, with “After 7 days in vitro (DIV 7), cultures were shifted into a growth medium identical to the plating medium but lacking fetal serum. At DIV 7-9, 10 mM cytosine arabinofuranoside was included to halt overgrowth of glia. Mixed cultures of neurons and glia were then fed twice a week.” left out
# (§8) Neuronal death was analyzed 24 hr later by measuring levels of LDH released into the medium, meant SEM (n=7-8 (2a), n=3-6 (2b), n=4 (2c), or n=4 (2d) culture wells per condition). […]
# 5-(pentafluorobenzyl)amino salicylic acid (PBAS) was synthesized and tested against neuronal injuries. […] Neuronal death was analyzed 24 hr later by measuring levels of LDH released into the medium, mean t SEM (n=11-16 (8a), n=3-6 (8b), n=4-11 (8c), or n=12 (8d) culture wells per condition).
# [5] = system: Mouse cortical cell cultures; assay: Zn2+ neurotoxicity in cortical cell cultures (LDH release); type: cell-based; settings: 300 μM Zn2+ 30 min
# Method: as §1, with “Cultures were maintained at 37° C. in a humidified 5% CO2 atmosphere. After 7 days in vitro (DIV 7), cultures were shifted into a growth medium identical to the plating medium but lacking fetal serum. At DIV 7-9, 10 mM cytosine arabinofuranoside was included to halt overgrowth of glia. Mixed cultures of neurons and glia were then fed twice a week.” left out
# The neuroprotective action of 5-amino salicylic acid (AS) was examined in primary cortical cell cultures. […] Neuronal death was analyzed 24 hr later by measuring levels of LDH released into the bathing medium, mean±SEM (n=9-12 (1a), n=4-8 (1b) or n=4 (1c) culture wells per condition), scaled to mean LDH efflux value 24 hr after sham wash (=0) and continuous exposure to 500μ M NMDA (=100).
# as §8
# [6] = 50 μM Fe2+ continuously, compound 1 μM
# [7] = 50 μM Fe2+ continuously, compound 10 μM
smiles,measurement,setting,value
"O=C(O)c1cc(NCCc2ccc([N+](=O)[O-])cc2)ccc1O [NPAA, 5-[2-(4-nitrophenyl)-ethyl]aminosalicylic acid]",A517 nm (DPPH),[1]; compound 100 μM,0.09 ± 0.01
same,"Effect on NMDA-induced neuronal death, in words",[2]; compound 300 μM,slightly reduced
same,"Effect on Fe2+-induced neuronal death, in words",[3]; [6],complete blockade
same,Protection against free radical neurotoxicity compared with parent compound,[3],more effective than NBAS
"O=C(O)c1cc(NCc2c(F)c(F)c(F)c(F)c2F)ccc1O [PBAS, 5-(pentafluorobenzyl)aminosalicylic acid]","Anti-oxidant property against DPPH, in words","[1]; DPPH, a stable free radical",reduced levels of DPPH
same,A517 nm (DPPH),[1]; compound 1 μM,1.07 ± 0.07
same,A517 nm (DPPH),[1]; compound 3 μM,1.01 ± 0.07
same,A517 nm (DPPH),[1]; compound 10 μM,0.71 ± 0.09
same,A517 nm (DPPH),[1]; compound 30 μM,0.21 ± 0.04
same,A517 nm (DPPH),[1]; compound 100 μM,0.15 ± 0.02
same,A517 nm (DPPH),[1]; compound 300 μM,0.16 ± 0.01
same,Reduction of NMDA-induced neuronal death,"[2]; compound 300 μM, LDH 24 hr later",~65%
same,"Effect on NMDA-induced neuronal death, in words",[2]; compound 100-1000 μM,reduced NMDA-induced neuronal death in a dose-dependent manner
same,"Effect on NMDA-induced neuronal death, in words",[2]; compound up to 1 mM,completely blocked
same,"Effect on Fe2+-induced neuronal death, in words",[3]; [6],significantly reduced
same,"Effect on Fe2+-induced neuronal death, in words","[3]; 50 μM Fe2+ continuously, compound 3 μM",near completely blocked
same,"Effect on BSO-induced neuronal death, in words",[4],blocked
same,"Effect on Zn2+-induced neuronal death, in words",[5]; compound 100-300 μM,attenuated
"Cc1c(C)c2c(c(C)c1O)CCC(C)(C(=O)O)O2 (stereo not drawn) [Trolox, reference compound]",A517 nm (DPPH),[1]; compound 3 μM,1.08 ± 0.1
same,A517 nm (DPPH),[1]; compound 10 μM,0.89 ± 0.08
same,A517 nm (DPPH),[1]; compound 30 μM,0.39 ± 0.06
same,A517 nm (DPPH),[1]; compound 100 μM,0.05 ± 0.01
same,A517 nm (DPPH),[1]; compound 300 μM,0.03 ± 0.01
"CCOC(=O)c1cc(NCc2ccc([N+](=O)[O-])cc2)ccc1O [NAHE, 5-(4-nitrobenzyl)amino-2-hydroxy ethylbenzoate]","Effect on Fe2+-induced neuronal death, in words",[3]; [7],blocked
"Nc1ccc(O)c(C(=O)O)c1 [AS, 5-amino salicylic acid, reference compound]","Effect on NMDA-induced neuronal death, in words","[2]; compound 10-300 μM, LDH 24 hr later",did not attenuate
same,"Effect on Fe2+-induced neuronal death, in words","[3]; 50 μM Fe2+ continuously 24 hr, compound 10-100 μM",dose-dependently prevented
same,"Effect on Zn2+-induced neuronal death, in words",[5]; compound 10-300 μM during and post Zn2+ treatment,not reduced
"O=C(O)c1cc(NS(=O)(=O)c2ccc([N+](=O)[O-])cc2)ccc1O [NBSAA, 5-(4-nitrobenzenesulfonyl)aminosalicylic acid]",A517 nm (DPPH),[1]; compound 100 μM,0.15 ± 0.05
same,"Effect on NMDA-induced neuronal death, in words",[2]; compound 300 μM,markedly reduced
same,"Effect on NMDA-induced neuronal death, in words",[2]; compound 30-300 μM,attenuated NMDA neurotoxicity in a dose-dependent manner
same,Protection against free radical neurotoxicity compared with parent compound,[3],weaker than NBAS
"CCOC(=O)c1cc(N(Cc2ccc([N+](=O)[O-])cc2)C(C)=O)ccc1OC(C)=O [NNAAE, 5-(4-nitrobenzyl)-N-acetylamino-2-acetoxy ethylbenzoate]","Effect on Fe2+-induced neuronal death, in words",[3]; [7],blocked
"O=C(O)c1cc(NCCCc2ccc([N+](=O)[O-])cc2)ccc1O [NPPAA, 5-[3-(4-nitrophenyl)-n-propyl]aminosalicylic acid]",A517 nm (DPPH),[1]; compound 100 μM,0.09 ± 0.02
same,"Effect on NMDA-induced neuronal death, in words",[2]; compound 300 μM,slightly reduced
same,"Effect on Fe2+-induced neuronal death, in words",[3]; [6],complete blockade
same,Protection against free radical neurotoxicity compared with parent compound,[3],more effective than NBAS
"O=C(Nc1ccc(O)c(C(=O)O)c1)c1ccc([N+](=O)[O-])cc1 [NBAA, 5-(4-nitrobenzoyl)aminosalicylic acid]",A517 nm (DPPH),[1]; compound 100 μM,0.42 ± 0.22
same,"Effect on NMDA-induced neuronal death, in words",[2]; compound 30 μM,significantly attenuated
same,"Effect on NMDA-induced neuronal death, in words",[2]; compound 30-300 μM,not further increased
same,Protection against free radical neurotoxicity compared with parent compound,[3],weaker than NBAS
"O=C(O)c1cc(NCc2ccc([N+](=O)[O-])cc2)ccc1O [NBAS, 5-(4-nitrobenzyl)aminosalicylic acid]",A517 nm (DPPH),[1]; compound 10 μM,0.37 ± 0.1
same,A517 nm (DPPH),[1]; compound 30 μM,0.04 ± 0.01
same,A517 nm (DPPH),[1]; compound 100 μM,0.04 ± 0.00
same,A517 nm (DPPH),[1]; compound 300 μM,0.04 ± 0.00
"CCOC(=O)c1cc(N(Cc2ccc([N+](=O)[O-])cc2)C(C)=O)ccc1O [NNAHE, 5-(4-nitrobenzyl)-N-acetylamino-2-hydroxy ethylbenzoate]","Effect on Fe2+-induced neuronal death, in words",[3]; [7],blocked
